What was measured:
[1] = tested on: HT-29; assay: CCK8 antiproliferative assay, HT-29; type: cell-based; conditions: Homo sapiens, CCK8, 48 h, mean ± SD, n = 3
Protocol: (§1) For all biological assays, all of the synthesized compounds were dissolved in DMSO. The cytotoxicity of all of the target compounds against the HCT116, K562, KU812, and HT-29 cells was determined by an CCK8 assay in vitro using adriamycin and echinatin as the controls. About 3000 cells per well were seeded in a 96-well plate and incubated for 24 h. Then, the cells were stimulated with different concentrations of test compounds for 48 h. The CCK8 solution (100 µL 0.5 mg/mL^−1) was added to each well, and the cells were incubated for another 4 h. Then, the absorbance of the samples was measured at 450 nm. The IC50 values were calculated according to the Logit method after obtaining the inhibitory rate. All experiments were repeated three times.

[2] = tested on: HCT116; assay: CCK8 antiproliferative assay, HCT116; type: cell-based; conditions: Homo sapiens, HCT-116; CCK8, 48 h, mean ± SD, n = 3
Protocol: as §1

[3] = tested on: KU812; assay: CCK8 antiproliferative assay, KU812; type: cell-based; conditions: Homo sapiens, CCK8, 48 h, mean ± SD, n = 3
Protocol: as §1

[4] = tested on: K562; assay: CCK8 antiproliferative assay, K562; type: cell-based; conditions: Homo sapiens, CCK8, 48 h, mean ± SD, n = 3
Protocol: as §1

[5] = target: c-KIT (Homo sapiens, UniProt P10721); assay: Biochemical c-KIT activity assay (ADP-Glo); conditions: 20 μM ATP, read-out: IC50 for c-KIT inhibition
Sequence of c-KIT (P10721 26-976): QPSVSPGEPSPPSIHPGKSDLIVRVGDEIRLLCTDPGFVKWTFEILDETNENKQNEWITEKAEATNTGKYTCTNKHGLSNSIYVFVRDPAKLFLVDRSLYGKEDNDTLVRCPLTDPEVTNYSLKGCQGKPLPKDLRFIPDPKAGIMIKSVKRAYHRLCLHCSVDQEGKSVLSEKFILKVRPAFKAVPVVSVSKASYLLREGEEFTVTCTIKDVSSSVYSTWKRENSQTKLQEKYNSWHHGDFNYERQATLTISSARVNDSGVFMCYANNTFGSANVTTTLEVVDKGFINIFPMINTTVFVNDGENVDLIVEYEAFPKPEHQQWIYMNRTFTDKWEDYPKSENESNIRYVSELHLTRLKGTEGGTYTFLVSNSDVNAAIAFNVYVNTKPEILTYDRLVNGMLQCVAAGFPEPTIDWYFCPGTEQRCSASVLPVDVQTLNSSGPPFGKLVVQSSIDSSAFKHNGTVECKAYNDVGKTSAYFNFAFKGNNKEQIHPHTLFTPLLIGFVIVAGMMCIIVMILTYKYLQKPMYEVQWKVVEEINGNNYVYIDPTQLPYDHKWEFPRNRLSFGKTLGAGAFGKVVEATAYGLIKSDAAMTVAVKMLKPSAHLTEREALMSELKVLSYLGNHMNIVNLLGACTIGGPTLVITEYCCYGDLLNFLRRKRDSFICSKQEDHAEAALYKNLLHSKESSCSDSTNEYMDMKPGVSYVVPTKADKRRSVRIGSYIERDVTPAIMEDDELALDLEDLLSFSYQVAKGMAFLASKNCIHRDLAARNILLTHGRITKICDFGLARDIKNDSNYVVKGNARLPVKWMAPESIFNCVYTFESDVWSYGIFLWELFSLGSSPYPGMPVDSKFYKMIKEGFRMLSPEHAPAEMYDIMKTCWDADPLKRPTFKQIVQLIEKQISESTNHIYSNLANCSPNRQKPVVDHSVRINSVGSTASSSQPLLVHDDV
Protocol: The enzymatic activities of c-KIT were determined by in vitro kinase assays using the ADP-Glo reagent (Promega, Madison, WI, USA) according to the manufacturer’s instructions. Briefly, 250 ng of c-KIT protein was incubated with compounds in 10 μL of reaction buffer (40 mM Tris−HCl, pH 7.4, 2 mM MnCl2, 2 mM DTT, 20 mM MgCl2, 0.1 mg/mL bovine serum albumin, 1 mM Na3VO4) containing 20 μΜ ATP and 40 μM poly (Glu4-Tyr1) as substrates at 30 °C for 150 min. The ADP-Glo reagent was then added, and the mixture was incubated at 25 °C for 40 min. The kinase detection reagent was added for another 30 min at 25 °C. The converted ADP was determined by luminescence measurement using a Wallac Vector 1420 multilabel counter (PerkinElmer).

| IC50 [1] [µM] | IC50 [2] [µM] | IC50 [4] [µM] | melting point [°C] | IC50 [5] [µM] | SMILES | IC50 [3] [µM] |
| --- | --- | --- | --- | --- | --- | --- |
| 2.7 ± 0.71 | 1.5 ± 0.19 | 4.22 ± 0.44 | – | – | COc1cccc2c1C(=O)c1c(O)c3c(c(O)c1C2=O)C[C@@](O)(C(=O)CO)C[C@@H]3O[C@H]1C[C@H](N)[C@H](O)[C@H](C)O1 [Adriamycin, reference compound] | 4.14 ± 0.53 |
| 7.1 ± 0.45 | 4.85 ± 0.32 | 22.05 ± 0.12 | 186.1 to 189.4 | – | COc1cc(O)ccc1/C=C/C(=O)c1ccc(OCc2nnc(Nc3ccc(C)cc3)o2)cc1 [Compound T1, (E)-3-(4-Hydroxy-2-methoxyphenyl)-1-{4-{[5-(p-tolylamino)-1,3,4-oxadiazol-2-yl]methoxy}phenyl}propen-one] | 9.55 ± 0.17 |
| 8.78 ± 0.12 | 3.97 ± 0.53 | > 30 | 212.6 to 213.6 | – | COc1ccc(Nc2nnc(COc3ccc(C(=O)/C=C/c4ccc(O)cc4OC)cc3)o2)cc1 [Compound T2, (E)-3-(4-Hydroxy-2-methoxyphenyl)-1-{4-{{5-[(4-methoxyphenyl)amino]-1,3,4-oxadiazol-2-yl}methoxy}phenyl}p-ropenone] | 13.3 ± 0.39 |
| 5.16 ± 0.11 | 2.47 ± 0.56 | 15.5 ± 1.09 | 200.1 to 200.4 | 0.237 | CCOc1ccc(Nc2nnc(COc3ccc(C(=O)/C=C/c4ccc(O)cc4OC)cc3)o2)cc1 [Compound T3] | 17.2 ± 0.67 |
| 3.64 ± 0.21 | 3.94 ± 0.33 | > 30 | 227.6 to 228.4 | – | COc1cc(O)ccc1/C=C/C(=O)c1ccc(OCc2nnc(Nc3ccc(OC(F)(F)F)cc3)o2)cc1 [Compound T5] | 12.45 ± 0.02 |
| > 30 | 4.39 ± 0.71 | > 30 | 211.8 to 214.1 | – | COc1cc(O)ccc1/C=C/C(=O)c1ccc(OCc2nnc(Nc3ccc(F)cc3)o2)cc1 [Compound T6, (E)-1-{4-{{5-[(4-Fluorophenyl)amino]-1,3,4-oxadiazol-2-yl}methoxy}phenyl}-3-(4-hydroxy-2-methoxyphen-yl)propenone] | 16.9 ± 1.58 |
| > 30 | 2.08 ± 0.54 | > 30 | 211.4 to 212.1 | – | COc1cc(O)ccc1/C=C/C(=O)c1ccc(OCc2nnc(Nc3ccc(Cl)cc3)o2)cc1 [Compound T7, (E)-1-{4-{{5-[(4-Chlorophenyl)amino]-1,3,4-oxadiazol-2-yl}methoxy}phenyl}-3-(4-hydroxy-2-methoxyphen-yl)propenone] | 17.5 ± 1.77 |
| 4.94 ± 0.25 | 6.51 ± 0.19 | 19.48 ± 0.12 | 197.1 to 198.5 | 0.613 | COc1cc(O)ccc1/C=C/C(=O)c1ccc(OCc2nnc(Nc3ccc(C(C)(C)C)cc3)o2)cc1 [Compound T8] | 12 ± 1.28 |
| > 30 | 10 ± 0.93 | > 30 | 206.5 to 209.2 | – | COc1cc(O)ccc1/C=C/C(=O)c1ccc(OCc2nnc(Nc3ccccc3C)o2)cc1 [Compound T9] | > 30 |
| > 30 | 7.62 ± 1.23 | > 30 | 187.6 to 190.8 | – | COc1cc(O)ccc1/C=C/C(=O)c1ccc(OCc2nnc(Nc3cccc(C)c3)o2)cc1 [Compound T10, (E)-3-(4-Hydroxy-2-methoxyphenyl)-1-{4-{[5-(m-tolylamino)-1,3,4-oxadiazol-2-yl]methoxy}phenyl}propen-one] | > 30 |
| > 30 | > 30 | > 30 | 175.4 to 188.3 | – | CCOc1ccccc1Nc1nnc(COc2ccc(C(=O)/C=C/c3ccc(O)cc3OC)cc2)o1 [Compound T11, (E)-1-{4-{{5-[(2-Ethoxyphenyl)amino]-1,3,4-oxadiazol-2-yl}methoxy}phenyl}-3-(4-hydroxy-2-methoxyphe-nyl)propenone] | > 30 |
| 12.8 ± 0.98 | 6.14 ± 1.45 | > 30 | 186.2 to 187.4 | – | COc1cc(O)ccc1/C=C/C(=O)c1ccc(OCc2nnc(Nc3ccccc3F)o2)cc1 [Compound T12, (E)-1-{4-{{5-[(2-Fluorophenyl)amino]-1,3,4-oxadiazol-2-yl}methoxy}phenyl}-3-(4-hydroxy-2-methoxyphen-yl)propenone] | > 30 |
| 13.9 ± 0.67 | 10.2 ± 0.87 | > 30 | 191.3 to 191.8 | – | COc1cc(O)ccc1/C=C/C(=O)c1ccc(OCc2nnc(Nc3ccccc3Cl)o2)cc1 [Compound T13, (E)-1-{4-{{5-[(2-Chlorophenyl)amino]-1,3,4-oxadiazol-2-yl}methoxy}phenyl}-3-(4-hydroxy-2-methoxyphen-yl)propenone] | > 30 |
| 13.2 ± 0.53 | 9.83 ± 1.98 | > 30 | 225 to 225.9 | – | COc1cc(O)ccc1/C=C/C(=O)c1ccc(OCc2nnc(Nc3cccc(Cl)c3)o2)cc1 [Compound T14, (E)-1-{4-{{5-[(3-Chlorophenyl)amino]-1,3,4-oxadiazol-2-yl}methoxy}phenyl}-3-(4-hydroxy-2-methoxyphen-yl)propenone] | > 30 |
| > 30 | > 30 | > 30 | 192.9 to 194.1 | – | COc1cc(O)ccc1/C=C/C(=O)c1ccc(OCc2nnc(Nc3ccc(C)cc3C)o2)cc1 [Compound T15, (E)-1-{4-{{5-[(2,4-Dimethylphenyl)amino]-1,3,4-oxadiazol-2-yl}methoxy}phenyl}-3-(4-hydroxy-2-methoxy-phenyl)propenone] | > 30 |
| > 30 | > 30 | > 30 | 223.4 to 223.9 | – | COc1cc(O)ccc1/C=C/C(=O)c1ccc(OCc2nnc(Nc3ccc(F)cc3F)o2)cc1 [Compound T16, (E)-1-{4-{{5-[(2,4-Difluorophenyl)amino]-1,3,4-oxadiazol-2-yl}methoxy}phenyl}-3-(4-hydroxy-2-methoxy-phenyl)propenone] | > 30 |
| > 30 | > 30 | > 30 | 193 to 194.3 | – | COc1cc(O)ccc1/C=C/C(=O)c1ccc(OCc2nnc(Nc3c(F)cccc3F)o2)cc1 [Compound T17, (E)-1-{4-{{5-[(2,6-Difluorophenyl)amino]-1,3,4-oxadiazol-2-yl}methoxy}phenyl}-3-(4-hydroxy-2-methoxy-phenyl)propenone] | > 30 |
| > 30 | > 30 | > 30 | 172.3 to 174.6 | – | COc1cc(O)ccc1/C=C/C(=O)c1ccc(OCc2nnc(Nc3c(Cl)cccc3Cl)o2)cc1 [Compound T18, (E)-1-{4-{{5-[(2,6-Dichlorophenyl)amino]-1,3,4-oxadiazol-2-yl}methoxy}phenyl}-3-(4-hydroxy-2-methoxy-phenyl)propenone] | > 30 |
| 10.4 ± 0.87 | 4.54 ± 0.76 | > 30 | – | – | COc1cc(O)ccc1/C=C/C(=O)c1ccc(O)cc1 [Echinatin] | 13.8 ± 0.33 |

| SMILES | IC50 [1] [µM] | IC50 [2] [µM] | IC50 [4] [µM] | melting point [°C] | IC50 [5] [µM] | IC50 [3] [µM] |
| --- | --- | --- | --- | --- | --- | --- |
| FC(F)(F)c1ccc(CNc2ccc(Cc3c[nH]c4ncccc34)cn2)cc1 [PLX647, reference compound] | – | – | – | – | 0.068 | – |

Source: paper PMC10889159, “Synthesis and Antitumor Activity Evaluation of Novel Echinatin Derivatives with a 1,3,4-Oxadiazole Moiety” (International Journal of Molecular Sciences, 2024)
